Results on two compounds are retold here after paper PMC6755814, “Crystal structure of the first eukaryotic bilin reductase GtPEBB reveals a flipped binding mode of dihydrobiliverdin” (The Journal of Biological Chemistry, 2019).

In test [1] the target is T1, mGtPEBB (Guillardia theta, UniProt L1IWQ9, R298M).
T1 construct: gene GUITHDRAFT_96430; GST fusion in E. coli, cut by TEV protease, leaving N-terminal Gly-Gly; single-domain protein; codon-optimized gene
Put plainly: UV/Vis spectral shift; anaerobic reductase assay with HPLC. The note with it: pH 7.5, ferredoxin from Synechococcus sp. PCC7002, NADPH regenerating system; product DHBV, low efficiency. The test is classed as biochemical.

Test [2] addresses T2, mGtPEBB (Guillardia theta, UniProt L1IWQ9).
T2 construct: gene GUITHDRAFT_96430; GST fusion in E. coli, cut by TEV protease, leaving N-terminal Gly-Gly; single-domain protein; codon-optimized gene
T2 sequence (L1IWQ9 84-356): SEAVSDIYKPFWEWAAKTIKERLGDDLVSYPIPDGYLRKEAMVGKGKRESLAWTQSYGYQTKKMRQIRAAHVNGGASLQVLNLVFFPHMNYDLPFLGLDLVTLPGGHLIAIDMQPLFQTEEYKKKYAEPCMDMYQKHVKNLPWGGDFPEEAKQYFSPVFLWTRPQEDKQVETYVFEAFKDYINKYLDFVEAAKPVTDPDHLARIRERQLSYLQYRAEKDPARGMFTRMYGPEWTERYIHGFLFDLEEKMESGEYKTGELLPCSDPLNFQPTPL
Put plainly: UV/Vis spectral shift; HPLC of products. The test is classed as binding. The note with it: pH 7.5, 10 μM protein, 10 μM bilin; unnatural ligand, not reduced.

The target in test [3] is T3, mGtPEBB (Guillardia theta, UniProt L1IWQ9, R298A).
T3 construct: gene GUITHDRAFT_96430; GST fusion in E. coli, cut by TEV protease, leaving N-terminal Gly-Gly; single-domain protein; codon-optimized gene
Put plainly: UV/Vis spectral shift; anaerobic reductase assay with HPLC. The note with it: pH 7.5, ferredoxin from Synechococcus sp. PCC7002, NADPH regenerating system; trace conversion only. The test is classed as biochemical.

The target of test [4] is T4, mGtPEBB (Guillardia theta, UniProt L1IWQ9, D302N).
T4 construct: gene GUITHDRAFT_96430; GST fusion in E. coli, cut by TEV protease, leaving N-terminal Gly-Gly; single-domain protein; codon-optimized gene
The test is described as above. The test is classed as binding. The following applies: pH 7.5, ferredoxin from Synechococcus sp. PCC7002, NADPH regenerating system.

Test [5] addresses T5, mGtPEBB (Guillardia theta, UniProt L1IWQ9, D182N).
T5 construct: gene GUITHDRAFT_96430; GST fusion in E. coli, cut by TEV protease, leaving N-terminal Gly-Gly; single-domain protein; codon-optimized gene
Described as above. It counts as binding. The note with it: pH 7.5, ferredoxin from Synechococcus sp. PCC7002, NADPH regenerating system.

Test [6] has as its target T6, mGtPEBB (Guillardia theta, UniProt L1IWQ9, R298S).
T6 construct: gene GUITHDRAFT_96430; GST fusion in E. coli, cut by TEV protease, leaving N-terminal Gly-Gly; single-domain protein; codon-optimized gene
The description is as above. The following applies: pH 7.5, ferredoxin from Synechococcus sp. PCC7002, NADPH regenerating system. It counts as binding.

For test [7], the target named is T1, mGtPEBB. The description is as above. It counts as binding. The note with it: pH 7.5, ferredoxin from Synechococcus sp. PCC7002, NADPH regenerating system.
For test [8], the target named is T7, mGtPEBB (Guillardia theta, UniProt L1IWQ9, R298L).
T7 construct: gene GUITHDRAFT_96430; GST fusion in E. coli, cut by TEV protease, leaving N-terminal Gly-Gly; single-domain protein; codon-optimized gene
Described as above. It counts as binding. The following applies: pH 7.5, ferredoxin from Synechococcus sp. PCC7002, NADPH regenerating system.

Test [9] deals with T8, mGtPEBB (Guillardia theta, UniProt L1IWQ9, R298K).
T8 construct: gene GUITHDRAFT_96430; GST fusion in E. coli, cut by TEV protease, leaving N-terminal Gly-Gly; single-domain protein; codon-optimized gene
The description is as above. The test is classed as biochemical. The following applies: pH 7.5, ferredoxin from Synechococcus sp. PCC7002, NADPH regenerating system.

Test [10] has as its target T2, mGtPEBB. Put plainly: X-ray crystal structure of complex, […] Å; UV/Vis spectral shift; anaerobic reductase assay with HPLC. It counts as binding. The following applies: co-crystal at pH 8.5; assay pH 7.5 with ferredoxin from Synechococcus sp. PCC7002, NADPH regenerating system; active site, flipped orientation.

T1 sequence (L1IWQ9 entry or part of it R298M): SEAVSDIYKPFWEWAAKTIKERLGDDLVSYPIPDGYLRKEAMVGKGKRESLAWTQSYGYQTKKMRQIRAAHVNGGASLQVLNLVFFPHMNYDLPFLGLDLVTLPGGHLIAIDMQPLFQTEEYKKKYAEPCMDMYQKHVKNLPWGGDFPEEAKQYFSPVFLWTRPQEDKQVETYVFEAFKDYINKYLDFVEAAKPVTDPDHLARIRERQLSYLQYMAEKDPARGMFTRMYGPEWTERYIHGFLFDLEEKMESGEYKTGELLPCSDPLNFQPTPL
T4 sequence (L1IWQ9 entry or part of it D302N): as the sequence (L1IWQ9 entry or part of it R298M) above, with M215R, D219N counted along it
T7 sequence (L1IWQ9 entry or part of it R298L): as the sequence (L1IWQ9 entry or part of it R298M) above, with M215L counted along it
T3 sequence (L1IWQ9 entry or part of it R298A): as the sequence (L1IWQ9 entry or part of it R298M) above, with M215A counted along it
T8 sequence (L1IWQ9 entry or part of it R298K): as the sequence (L1IWQ9 entry or part of it R298M) above, with M215K counted along it
T5 sequence (L1IWQ9 entry or part of it D182N): as the sequence (L1IWQ9 entry or part of it R298M) above, with D99N, M215R counted along it
T6 sequence (L1IWQ9 entry or part of it R298S): as the sequence (L1IWQ9 entry or part of it R298M) above, with M215S counted along it

Take `C=CC1=C(C)C(=Cc2[nH]c(C=C3N=C(C=C4NC(=O)C(C)=C4C=C)C(C)=C3CCC(=O)O)c(CCC(=O)O)c2C)NC1=O` [BV]: the “UV/Vis spectral shift; anaerobic reductase assay with HPLC” value at mGtPEBB [1] was “R215M was able to convert BV to DHBV”. In addition, the “UV/Vis spectral shift; HPLC of products” value at mGtPEBB [2] is listed as “indicated binding of this unnatural substrate”.

With `C=CC1=C(C)C(=O)NC1=CC1=NC(=Cc2[nH]c(CC3NC(=O)C(C=C)=C3C)c(C)c2CCC(=O)O)C(CCC(=O)O)=C1C` (stereo not shown) [DHBV], the “UV/Vis spectral shift; anaerobic reductase assay with HPLC” value was “only trace amounts of PEB were detected for R215A” at mGtPEBB [3]; “caused a blue shift of the maximum of the DHBV-binding spectrum” at mGtPEBB [4]; “caused a blue shift of the maximum of the DHBV-binding spectrum” on mGtPEBB [5]; “both R215S and R215M showed binding spectra similar to WT” on mGtPEBB [6]; “both R215S and R215M showed binding spectra similar to WT” at mGtPEBB [7]; “the binding spectrum of R215L was very similar to the WT spectrum” at mGtPEBB [8]. For the same compound, the “UV/Vis spectral shift; anaerobic reductase assay with HPLC” value at mGtPEBB [9] is “Replacing Arg-215 with lysine maintained side chain charge and size to some extent”. For the same compound, on mGtPEBB [10], the “X-ray crystal structure of complex, 1.65 Å; UV/Vis spectral shift; anaerobic red” value is given as “Both chains showed clear density for DHBV already after molecular replacement”.
